Measured values published in US11363816B2, “4-amino-6-(heterocyclic)picolinates and 6-amino-2-(heterocyclic)pyramidine-4-carboxylates and their use as herbicides” (Dow AgroSciences LLC, priority 2017, dated 2022).

What was measured:
Assay type in all cases: in vivo
[1] = system: ANTAR=Anthemis arvensis (field chamomile); assay: Postemergent herbicidal activity in the greenhouse; settings: 21-28 DAAA
Description: (§1) Seeds of the desired test plant species were planted in Sun Gro MetroMix® 306 planting mixture, which typically has a pH of 6.0 to 6.8 and an organic matter content of about 30 percent, in plastic pots with a surface area of 103.2 square centimeters (cm^2). When required to ensure good germination and healthy plants, a fungicide treatment and/or other chemical or physical treatment was applied. The plants were grown for 7-36 days (d) in a greenhouse with an approximate 14 hour (h) photoperiod which was maintained at about 18° C. during the day and 17° C. during the night. Nutrients and water were added on a regular basis and supplemental lighting was provided with overhead metal halide 1000-Watt lamps as necessary. The plants were employed for testing when they reached the second or third true leaf stage.
(§2) An aliquot of formulated Compound 5 (100 grams acid equivalent per liter (g ae/L); emusifiable concentrate (EC)), Compound 6 (100 g ae/L; EC) or Compound 7 (100 g ae/L; EC) was placed in a 25 mL glass vial and diluted in a volume of 1.25% (volume per volume (v/v)) aqueous Actirob B esterified rapeseed oil to obtain a stock solution. The concentrated stock solutions were diluted with an aqueous mixture of 1.25% v/v of aqueous Actirob B esterified rapeseed oil to provide the appropriate application rates. Compound requirements are based upon a 12 mL application volume at a rate of 187 liters per hectare (L/ha). Formulated compounds were applied to the plant material with an overhead Mandel track sprayer equipped with 8002E nozzles calibrated to deliver 187 L/ha over an application area of 0.503 square meters (m^2) at a spray height of 18 inches ([…]) above average plant canopy. Control plants were sprayed in the same manner with the solvent blank.
(§3) The treated plants and control plants were placed in a greenhouse as described above and watered by subirrigation to prevent washoff of the test compounds. After 20-22 d, the condition of the test plants as compared with that of the control plants was determined visually and scored on a scale of 0 to 100 percent where 0 corresponds to no injury and 100 corresponds to complete kill. […]
(§4) The values reported are means.

[2] = system: CIRAR=Cirsium arvense (L.) Scop. (Canada thistle); assay: Postemergent herbicidal activity in the greenhouse; settings: 21-28 DAAA
Description: as §1, §2, §3, §4

[3] = system: PAPRH=Papaver rhoeas L. (common poppy); assay: Postemergent herbicidal activity in the greenhouse; settings: 21-28 DAAA
Description: as §1, §2, §3, §4

[4] = system: POLCO=Polygonum convolvulus L. (wild buckwheat); assay: Postemergent herbicidal activity in the greenhouse; settings: 21-28 DAAA
Description: as §1, §2, §3, §4

[5] = system: VERSS=Veronica spp (speedwell); assay: Postemergent herbicidal activity in the greenhouse; settings: 21-28 DAAA
Description: as §1, §2, §3, §4

[6] = system: CHEAL=Chenopodium album L. (common lambsquarters); assay: Postemergence field trial, Nisku, Alberta, Canada
Description: (§5) Field trials were established in Canada (in Ellerslie, Alberta; Nisku, Alberta and Hanley, Saskatchewan) to evaluate the efficacy of Compound 5, Compound 6, and Compound 7. Trials were designed as randomized complete blocks with four replicates. Trials were established in spring wheat with natural weed population with plot sizes of 2-3 meters (m) by 8-10 m (width×length). The crops were grown using normal cultural practices for fertilization, seeding, and maintenance to ensure good growth of the crop.
(§6) All herbicide treatments were applied post-emergence with applications made to the crops at BBCH (Phenological development stages of a plant) 14 to 22 growth stage. Herbicides were applied with backpack or bicycle sprayers using carbon dioxide (CO2) as a propellant. The sprayers utilized flat fan air-induction spray nozzles calibrated to deliver a uniform spray pattern that provided thorough coverage of the foliage using a 100 L/ha spray volume. All treatments were applied with methylated seed oil (MSO) at 1.25% v/v. Phytotoxicity to the weeds was assessed visually at several intervals after application as percent overall control, compared to an untreated control plot. In general, four replicates were assessed for each treatment. All treatment results are an average of four replicates.
(§7) Compound 5, Compound 6 and Compound 7 were applied as emulsifiable concentrate (EC) formulations at 100 g ae/L EC, respectively.

[7] = system: STEME=Stellaria media (L.) Vill. (common chickweed); assay: Postemergence field trial, Nisku, Alberta, Canada
Description: as §5, §6, §7

[8] = system: CHEAL=Chenopodium album L. (common lambsquarters); assay: Postemergence field trial, Ellerslie, Alberta, Canada
Description: as §5, §6, §7

[9] = system: POLCO=Polygonum convolvulus L. (wild buckwheat); assay: as above
Description: as §5, §6, §7

[10] = system: STEME=Stellaria media (L.) Vill. (common chickweed); assay: as above
Description: as §5, §6, §7

[11] = system: CENCY=Centaurea cyanus (cornflower); assay: Postemergence field trial, Bielefed, Germany
Description: (§8) Field trials were established in Spain (Banares and Granon) and Germany (Bielefeld) to evaluate the efficacy of Compound 5, Compound 6, and Compound 7. Trials were designed as randomized complete blocks with three to four replicates. Trials were established in winter wheat with natural weed population with plot sizes of 2-2.5 meters (m) by 6-8 m (width×length). The crops were grown using normal cultural practices for fertilization, seeding, and maintenance to ensure good growth of the crop. All herbicide treatments were applied post-emergence with applications made to the crops at the BBCH 21 to 23 growth stage. Herbicides were applied with backpack or bicycle sprayers using air as a propellant. The sprayers utilized flat fan air-induction spray nozzles calibrated to deliver a uniform spray pattern that provided thorough coverage of the foliage using a 200 L/ha spray volume. All treatments were applied with methylated seed oil (MSO) at 1.25% v/v. Phytotoxicity to the weeds was assessed visually at several intervals after application as percent overall control, compared to an untreated control plot. In general, three to four replicates were assessed for each treatment. All treatment results are an average of three or four replicates. Compound 5, Compound 6, and Compound 7 were applied as emulsifiable concentrate (EC) formulations at 100 g ae/L EC, respectively.

[12] = system: PAPRH=Papaver rhoeas L. (common poppy); assay: Postemergence field trial, Bielefed, Germany
Description: as §8

Row | SMILES | Percent (%) Visual Control ANTAR ([1]; 10 g ae/ha) [%] | Percent (%) Visual Control ANTAR ([1]; 20 g ae/ha) [%] | Percent (%) Visual Control CIRAR ([2]; 10 g ae/ha) [%] | Percent (%) Visual Control CIRAR ([2]; 20 g ae/ha) [%] | Percent (%) Visual Control PAPRH ([3]; 10 g ae/ha) [%] | Percent (%) Visual Control PAPRH ([3]; 20 g ae/ha) [%] | Percent (%) Visual Control POLCO ([4]; 10 g ae/ha) [%] | Percent (%) Visual Control POLCO ([4]; 20 g ae/ha) [%] | Percent (%) Visual Control VERSS ([5]; 10 g ae/ha) [%] | Percent (%) Visual Control VERSS ([5]; 20 g ae/ha) [%] | Percent (%) Visual Control CHEAL 51DAAA ([6]; 10 g ae/ha) [%] | Percent (%) Visual Control CHEAL 51DAAA ([6]; 20 g ae/ha) [%] | Percent (%) Visual Control CHEAL 51DAAA ([6]; 40 g ae/ha) [%] | Percent (%) Visual Control STEME 28DAAA ([7]; 10 g ae/ha) [%] | Percent (%) Visual Control STEME 51DAAA ([7]; 10 g ae/ha) [%] | Percent (%) Visual Control STEME 28DAAA ([7]; 20 g ae/ha) [%] | Percent (%) Visual Control STEME 51DAAA ([7]; 20 g ae/ha) [%] | Percent (%) Visual Control STEME 28DAAA ([7]; 40 g ae/ha) [%] | Percent (%) Visual Control STEME 51DAAA ([7]; 40 g ae/ha) [%] | Percent (%) Visual Control CHEAL 51DAAA ([8]; 10 g ae/ha) [%] | other results
1 | C#CCOC(=O)c1nc(-c2ccc3cc[nH]c3c2F)c(F)c(N)c1Cl [Compound 5, prop-2-yn-1-yl 4-amino-3-chloro-5-fluoro-6-(7-fluoro-1H-indol-6-yl)picolinate] | 100 | 83.3 | 56.7 | 58.3 | 95 | 100 | 100 | 100 | 77.5 | 80.8 | 98 | 96.8 | 97.3 | 88 | 88.3 | 96 | 92.5 | 99 | 93.8 | 98 | Percent (%) Visual Control CHEAL 51DAAA ([8]; 20 g ae/ha): 98%; Percent (%) Visual Control POLCO 51DAAA ([9]; 10 g ae/ha): 76.3%; Percent (%) Visual Control POLCO 51DAAA ([9]; 20 g ae/ha): 91%; Percent (%) Visual Control STEME 51DAAA ([10]; 10 g ae/ha): 66.3%; Percent (%) Visual Control STEME 51DAAA ([10]; 20 g ae/ha): 83.3%; Percent (%) Visual Control CENCY 85DAAA ([11]; 5 g ae/ha): 65%; Percent (%) Visual Control CENCY 85DAAA ([11]; 10 g ae/ha): 87.5%; Percent (%) Visual Control CENCY 85DAAA ([11]; 20 g ae/ha): 95%; Percent (%) Visual Control PAPRH 85DAAA ([12]; 5 g ae/ha): 92.5%; Percent (%) Visual Control PAPRH 85DAAA ([12]; 10 g ae/ha): 97.3%; Percent (%) Visual Control PAPRH 85DAAA ([12]; 20 g ae/ha): 98.8%
2 | N#CCOC(=O)c1nc(-c2ccc3cc[nH]c3c2F)c(F)c(N)c1Cl [Compound 6, cyanomethyl 4-amino-3-chloro-5-fluoro-6-(7-fluoro-1H-indol-6-yl)picolinate] | 100 | 98.3 | 50 | 58.3 | 100 | 100 | 98.3 | 100 | 86.3 | 86.5 | 98 | 98 | 98 | 99 | 87.5 | 96 | 87.8 | 99 | 94.5 | 96.8 | Percent (%) Visual Control CHEAL 51DAAA ([8]; 20 g ae/ha): 98%; Percent (%) Visual Control CHEAL 51DAAA ([8]; 40 g ae/ha): 98%; Percent (%) Visual Control POLCO 51DAAA ([9]; 10 g ae/ha): 90.3%; Percent (%) Visual Control POLCO 51DAAA ([9]; 20 g ae/ha): 84.5%; Percent (%) Visual Control POLCO 51DAAA ([9]; 40 g ae/ha): 87%; Percent (%) Visual Control STEME 51DAAA ([10]; 10 g ae/ha): 83.8%; Percent (%) Visual Control STEME 51DAAA ([10]; 20 g ae/ha): 75.8%; Percent (%) Visual Control STEME 51DAAA ([10]; 40 g ae/ha): 90%; Percent (%) Visual Control CENCY 85DAAA ([11]; 5 g ae/ha): 60%; Percent (%) Visual Control CENCY 85DAAA ([11]; 10 g ae/ha): 92.5%; Percent (%) Visual Control CENCY 85DAAA ([11]; 20 g ae/ha): 97%; Percent (%) Visual Control PAPRH 85DAAA ([12]; 5 g ae/ha): 94.5%; Percent (%) Visual Control PAPRH 85DAAA ([12]; 10 g ae/ha): 97.3%; Percent (%) Visual Control PAPRH 85DAAA ([12]; 20 g ae/ha): 99.8%
3 | Nc1c(F)c(-c2ccc3cc[nH]c3c2F)nc(C(=O)OCc2ccccc2)c1Cl [Compound 7, benzyl 4-amino-3-chloro-5-fluoro-6-(7-fluoro-1H-indol-6-yl)picolinate, reference compound] | 99.3 | 99.3 | 30 | 46.7 | 85 | 100 | 97.5 | 98.8 | 72.5 | 67.5 | 98 | 98 | 98 | 76.7 | 76.3 | 76.7 | 80 | 99 | 85.8 | 94.8 | Percent (%) Visual Control CHEAL 51DAAA ([8]; 20 g ae/ha): 98%; Percent (%) Visual Control CHEAL 51DAAA ([8]; 40 g ae/ha): 98%; Percent (%) Visual Control POLCO 51DAAA ([9]; 10 g ae/ha): 79%; Percent (%) Visual Control POLCO 51DAAA ([9]; 20 g ae/ha): 92.8%; Percent (%) Visual Control POLCO 51DAAA ([9]; 40 g ae/ha): 96.8%; Percent (%) Visual Control STEME 51DAAA ([10]; 10 g ae/ha): 73.3%; Percent (%) Visual Control STEME 51DAAA ([10]; 20 g ae/ha): 80.8%; Percent (%) Visual Control STEME 51DAAA ([10]; 40 g ae/ha): 83.3%; Percent (%) Visual Control CENCY 85DAAA ([11]; 5 g ae/ha): 32.5%; Percent (%) Visual Control CENCY 85DAAA ([11]; 10 g ae/ha): 53.8%; Percent (%) Visual Control CENCY 85DAAA ([11]; 20 g ae/ha): 62.5%; Percent (%) Visual Control PAPRH 85DAAA ([12]; 5 g ae/ha): 66.3%; Percent (%) Visual Control PAPRH 85DAAA ([12]; 10 g ae/ha): 78.8%; Percent (%) Visual Control PAPRH 85DAAA ([12]; 20 g ae/ha): 80%
